What was measured:
Conditions in all cases: synthetic library passage 3, intravenous, relative to wild-type AAV9
[1] = tested on: brain; test: NGS fold enrichment of synthetic library (passage 3) in BALB/c mice, first cross-species screen; assay type: in vivo
Procedure, shortened: (§1)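 Synthetic capsid library (passage 3) was given intravenously […] to NHPs aged 2-4 years and to BALB/c and C57Bl/6 mice (n=3 each, 6-8 weeks). After about 28 days in vivo, tissue RNA was RT-PCR amplified and NGS-sequenced; values are fold enrichment per variant relative to wild-type AAV9.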

[2] = tested on: brain, spinal cord, and DRG of the NHPs; test: NGS fold enrichment of synthetic library (passage 3) in NHPs, first cross-species screen; assay type: in vivo, cynomolgus macaques (Macaca fascicularis)
Procedure, shortened: as §1

[3] = tested on: brain; test: NGS fold enrichment of synthetic library (passage 3) in C57Bl/6 mice, first cross-species screen; assay type: in vivo
Procedure, shortened: as §1

[4] = RNA from brain of BALB/c mice, NGS
[5] = RNA from spinal cord of NHPs, NGS
[6] = RNA from brain of C57Bl/6 mice, NGS

Row | Sequence | Fold enrichment over AAV9 in the brain of Mice (BALB/c) ([1]; RNA NGS, brain of BALB/c mice) [fold] | Fold enrichment over AAV9 in the brain of NHPs ([2]; RNA NGS, brain of NHPs) [fold] | Fold enrichment over AAV9 in the spinal cord of NHPs ([2]; RNA NGS, spinal cord of NHPs) [fold] | Fold enrichment over AAV9 in the brain of Mice (C57Bl/6) ([3]; RNA NGS, brain of C57Bl/6 mice) [fold] | Fold enrichment over AAV9 in the brain of Mice (BALB/c) [1, 4] [fold] | Fold enrichment over AAV9 in the brain of NHPs ([2]; RNA from brain of NHPs, NGS) [fold] | Fold enrichment over AAV9 in the spinal cord of NHPs [2, 5] [fold] | Fold enrichment over AAV9 in the brain of Mice (C57Bl/6) [3, 6] [fold]
1 | GSGQNQQVIPNSKT | 0.376 | 1.548 | 1.036 | 0.844 | – | – | – | –
2 | GSGIQSSYSQNQQT | 0.684 | 1.517 | 15.978 | 1.032 | – | – | – | –
3 | GSGSPRDSIQNQQT | 0.446 | 1.981 | 4.914 | 0.171 | – | – | – | –
4 | GSGQNKDHSTRRQT | – | – | – | – | 0.477 | 1.197 | 0.000 | 0.384
5 | GSGQRRELSQNQQT | – | – | – | – | 0.396 | 1.215 | 1.791 | 0.622
6 | GSGQSYQRDHNQQT | 0.323 | 1.859 | 8.013 | 0.779 | – | – | – | –
7 | GSGQLIASVVNQQT | 0.359 | 1.005 | 0.086 | 0.197 | – | – | – | –
8 | GSGQNQQQIGGNST | 0.576 | 1.741 | 6.169 | 0.877 | – | – | – | –
9 | GNVTTQKSGQNQQT | 0.922 | 1.122 | 2.546 | 1.215 | – | – | – | –
10 | GSGQNQQTHGGLRD | 1.298 | 1.519 | 6.487 | 1.913 | – | – | – | –
11 | GNILHATSGQNQQT | 0.424 | 2.136 | 0.125 | 1.159 | – | – | – | –
12 | GSGQNAHAKEGQQT | 1.179 | 1.108 | 0.000 | 0.875 | – | – | – | –
13 | GSGQHVSVANNQQT | 0.577 | 1.029 | 5.734 | 0.974 | – | – | – | –

Source: patent publication US20260250318A1, “COMPOSITIONS AND METHODS FOR CROSSING THE BLOOD BRAIN BARRIER” (VOYAGER THERAPEUTICS, INC., priority 2022, published 2026)
